ChEMBL document CHEMBL3132769, “Fragment growing to retain or alter the selectivity of anchored kinase hinge-binding fragments” (Medchemcomm, 2014)

Legend:
[1] = target: Fibroblast growth factor receptor 1 (Homo sapiens) (UniProt P11362); assay: Inhibition of human FGFR1 catalytic domain expressed in baculovirus assessed as substrate phosphorylation using fluorescence-labelled peptides as substrate at 8 uM after 90 mins by microfluidic peptide phosphorylation assay
[2] = target: Receptor-type tyrosine-protein kinase FLT3 (Homo sapiens) (UniProt P36888); assay: Inhibition of human FLT3 catalytic domain expressed in baculovirus assessed as substrate phosphorylation using fluorescence-labelled peptides as substrate at 8 uM after 90 mins by microfluidic peptide phosphorylation assay
Receptor-type tyrosine-protein kinase FLT3 (Homo sapiens), sequence (P36888 whole entry, the tested form may be a part): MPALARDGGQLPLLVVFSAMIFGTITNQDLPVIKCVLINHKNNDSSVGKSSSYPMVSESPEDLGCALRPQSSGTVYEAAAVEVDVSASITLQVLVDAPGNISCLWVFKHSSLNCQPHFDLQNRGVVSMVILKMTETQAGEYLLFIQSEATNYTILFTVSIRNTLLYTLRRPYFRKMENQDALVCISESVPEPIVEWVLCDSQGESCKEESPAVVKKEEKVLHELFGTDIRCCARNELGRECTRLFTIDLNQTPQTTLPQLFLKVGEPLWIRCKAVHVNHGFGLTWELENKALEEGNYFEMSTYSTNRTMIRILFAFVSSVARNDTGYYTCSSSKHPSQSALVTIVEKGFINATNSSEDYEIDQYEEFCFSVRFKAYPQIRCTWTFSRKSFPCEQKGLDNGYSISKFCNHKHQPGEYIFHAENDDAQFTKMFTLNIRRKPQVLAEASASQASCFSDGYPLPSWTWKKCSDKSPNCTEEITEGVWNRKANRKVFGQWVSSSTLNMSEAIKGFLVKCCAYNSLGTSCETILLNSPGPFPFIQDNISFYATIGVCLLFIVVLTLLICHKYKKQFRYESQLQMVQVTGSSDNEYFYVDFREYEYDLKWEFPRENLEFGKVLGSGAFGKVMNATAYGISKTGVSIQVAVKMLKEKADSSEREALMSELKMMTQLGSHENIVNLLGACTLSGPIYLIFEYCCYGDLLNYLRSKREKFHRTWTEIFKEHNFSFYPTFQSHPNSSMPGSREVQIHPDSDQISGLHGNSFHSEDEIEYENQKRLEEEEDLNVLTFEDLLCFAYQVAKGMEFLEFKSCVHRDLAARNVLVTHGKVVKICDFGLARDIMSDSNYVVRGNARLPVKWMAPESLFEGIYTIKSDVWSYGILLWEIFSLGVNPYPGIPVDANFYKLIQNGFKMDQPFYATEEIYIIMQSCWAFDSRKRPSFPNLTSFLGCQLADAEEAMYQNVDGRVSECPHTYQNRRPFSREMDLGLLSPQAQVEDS

[3] = target: Dual specificity tyrosine-phosphorylation-regulated kinase 1A (Rattus norvegicus) (UniProt Q63470); assay: Inhibition of rat full length DYRK1a expressed in Escherichia coli cell assessed as substrate phosphorylation using fluorescence-labelled peptides as substrate at 0.06 uM after 90 mins by microfluidic peptide phosphorylation assay
[4] = target: Aurora kinase B (Homo sapiens) (UniProt Q96GD4); assay: Inhibition of human full length AurB expressed in baculovirus assessed as substrate phosphorylation using fluorescence-labelled peptides as substrate at 0.2 uM after 90 mins by microfluidic peptide phosphorylation assay
Aurora kinase B (Homo sapiens), sequence (Q96GD4 whole entry, canonical isoform): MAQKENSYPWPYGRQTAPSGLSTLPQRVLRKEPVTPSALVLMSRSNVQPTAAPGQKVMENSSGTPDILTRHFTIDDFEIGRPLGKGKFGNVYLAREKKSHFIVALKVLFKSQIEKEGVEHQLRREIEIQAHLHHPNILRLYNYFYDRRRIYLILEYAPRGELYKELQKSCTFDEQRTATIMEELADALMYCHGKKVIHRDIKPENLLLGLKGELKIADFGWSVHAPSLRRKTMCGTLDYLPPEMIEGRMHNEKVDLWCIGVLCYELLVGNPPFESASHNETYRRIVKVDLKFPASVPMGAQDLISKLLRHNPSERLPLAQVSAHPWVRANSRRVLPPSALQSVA

[5] = target: Casein kinase I isoform alpha (Homo sapiens) (UniProt P48729); assay: Inhibition of human full length CSNK1A1 expressed in baculovirus assessed as substrate phosphorylation using fluorescence-labelled peptides as substrate at […] after 90 mins by microfluidic peptide phosphorylation assay
Casein kinase I isoform alpha (Homo sapiens), sequence (P48729 2-337 limits assumed): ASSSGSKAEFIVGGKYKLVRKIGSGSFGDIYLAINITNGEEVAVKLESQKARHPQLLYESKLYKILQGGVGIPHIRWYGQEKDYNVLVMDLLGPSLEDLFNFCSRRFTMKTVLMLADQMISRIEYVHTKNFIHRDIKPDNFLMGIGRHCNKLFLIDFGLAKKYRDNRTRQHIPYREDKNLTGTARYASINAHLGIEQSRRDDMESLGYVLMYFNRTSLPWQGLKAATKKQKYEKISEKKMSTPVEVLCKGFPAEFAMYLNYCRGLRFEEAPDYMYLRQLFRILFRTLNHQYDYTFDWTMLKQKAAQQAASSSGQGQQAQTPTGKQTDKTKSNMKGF

[6] = target: T1, Protein kinase C epsilon type (Homo sapiens) (UniProt Q02156); assay: Inhibition of human truncated PKC epsilon expressed in baculovirus assessed as substrate phosphorylation using fluorescence-labelled peptides as substrate at 9 uM after 90 mins by microfluidic peptide phosphorylation assay
T1 sequence (whole entry): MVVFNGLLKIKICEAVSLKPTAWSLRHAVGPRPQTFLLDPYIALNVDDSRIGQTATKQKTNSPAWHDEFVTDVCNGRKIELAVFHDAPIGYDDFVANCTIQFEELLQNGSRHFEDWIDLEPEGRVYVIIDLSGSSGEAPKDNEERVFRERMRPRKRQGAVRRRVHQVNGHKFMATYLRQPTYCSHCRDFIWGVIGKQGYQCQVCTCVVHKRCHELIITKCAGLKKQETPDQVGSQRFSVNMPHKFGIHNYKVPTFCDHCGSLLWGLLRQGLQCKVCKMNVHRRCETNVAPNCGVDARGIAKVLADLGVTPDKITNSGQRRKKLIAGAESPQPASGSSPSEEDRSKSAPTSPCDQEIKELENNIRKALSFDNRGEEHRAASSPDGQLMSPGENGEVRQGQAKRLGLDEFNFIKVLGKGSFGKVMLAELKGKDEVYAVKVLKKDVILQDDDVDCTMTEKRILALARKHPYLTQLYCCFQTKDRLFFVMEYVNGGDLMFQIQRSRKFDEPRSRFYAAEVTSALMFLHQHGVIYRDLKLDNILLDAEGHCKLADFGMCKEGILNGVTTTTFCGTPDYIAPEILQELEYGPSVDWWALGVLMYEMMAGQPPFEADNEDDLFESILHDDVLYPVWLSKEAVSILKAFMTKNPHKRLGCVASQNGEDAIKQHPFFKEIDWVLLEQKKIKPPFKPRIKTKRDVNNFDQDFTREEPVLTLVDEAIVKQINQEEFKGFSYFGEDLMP

[7] = target: Glycogen synthase kinase-3 beta (Homo sapiens) (UniProt P49841); assay: Inhibition of human full length GSK-3 beta expressed in baculovirus assessed as substrate phosphorylation using fluorescence-labelled peptides as substrate at 9 uM after 90 mins by microfluidic peptide phosphorylation assay
Glycogen synthase kinase-3 beta (Homo sapiens), sequence (P49841 whole entry, looked up): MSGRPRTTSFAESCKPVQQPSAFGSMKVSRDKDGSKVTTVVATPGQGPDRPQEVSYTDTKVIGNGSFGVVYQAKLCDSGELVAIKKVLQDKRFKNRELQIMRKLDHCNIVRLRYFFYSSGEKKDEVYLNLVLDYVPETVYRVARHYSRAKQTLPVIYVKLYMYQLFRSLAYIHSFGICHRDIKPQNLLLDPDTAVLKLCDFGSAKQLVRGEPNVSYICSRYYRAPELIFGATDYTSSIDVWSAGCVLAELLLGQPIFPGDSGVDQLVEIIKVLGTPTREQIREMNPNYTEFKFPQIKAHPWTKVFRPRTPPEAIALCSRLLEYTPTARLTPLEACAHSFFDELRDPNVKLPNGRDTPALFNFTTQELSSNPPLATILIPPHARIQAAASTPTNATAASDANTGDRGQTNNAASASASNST

[8] = target: T2, Mitogen-activated protein kinase 13 (Homo sapiens) (UniProt O15264); assay: Inhibition of human full length p38 delta expressed in Escherichia coli cell assessed as substrate phosphorylation using fluorescence-labelled peptides as substrate at 0.1 uM after 90 mins by microfluidic peptide phosphorylation assay
T2 sequence (whole entry): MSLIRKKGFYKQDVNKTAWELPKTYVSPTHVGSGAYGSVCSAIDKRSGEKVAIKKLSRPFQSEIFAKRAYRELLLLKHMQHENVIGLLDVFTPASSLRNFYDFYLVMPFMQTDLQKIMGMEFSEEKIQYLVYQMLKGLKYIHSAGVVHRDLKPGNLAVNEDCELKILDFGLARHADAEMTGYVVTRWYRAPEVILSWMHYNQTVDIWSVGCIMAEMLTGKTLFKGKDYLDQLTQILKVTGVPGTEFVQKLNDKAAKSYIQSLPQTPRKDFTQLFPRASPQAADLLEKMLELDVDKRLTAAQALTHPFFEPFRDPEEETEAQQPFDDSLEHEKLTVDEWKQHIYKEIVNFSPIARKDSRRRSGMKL

Homo sapiens = species: Homo sapiens; conditions: 0.1 uM
Description: Inhibition of human P70S6K catalytic domain expressed in baculovirus assessed as substrate phosphorylation using fluorescence-labelled peptides as substrate at 0.1 uM after 90 mins by microfluidic peptide phosphorylation assay

[9] = target: T3, Serine/threonine-protein kinase Sgk3 (Homo sapiens) (UniProt Q96BR1); assay: Inhibition of human full length SGK3 expressed in baculovirus assessed as substrate phosphorylation using fluorescence-labelled peptides as substrate at 95 uM after 90 mins by microfluidic peptide phosphorylation assay
T3 sequence (whole entry): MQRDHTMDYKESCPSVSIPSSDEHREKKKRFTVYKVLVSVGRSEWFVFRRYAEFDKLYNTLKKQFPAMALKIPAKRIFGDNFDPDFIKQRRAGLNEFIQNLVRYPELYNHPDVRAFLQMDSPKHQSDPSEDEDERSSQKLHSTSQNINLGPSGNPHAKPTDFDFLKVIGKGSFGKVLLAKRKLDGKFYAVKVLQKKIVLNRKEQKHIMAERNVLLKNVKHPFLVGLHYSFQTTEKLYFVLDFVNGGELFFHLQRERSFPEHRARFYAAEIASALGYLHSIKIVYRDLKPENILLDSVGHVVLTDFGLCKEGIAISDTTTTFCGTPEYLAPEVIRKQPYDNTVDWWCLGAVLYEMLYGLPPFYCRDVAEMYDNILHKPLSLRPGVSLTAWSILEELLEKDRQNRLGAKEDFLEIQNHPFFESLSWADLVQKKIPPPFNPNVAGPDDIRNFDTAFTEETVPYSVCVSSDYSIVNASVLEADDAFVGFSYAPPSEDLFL

[10] = target: Vascular endothelial growth factor receptor 2 (Homo sapiens) (UniProt P35968); assay: Inhibition of human KDR cytoplasmic domain expressed in baculovirus assessed as substrate phosphorylation using fluorescence-labelled peptides as substrate at 95 uM after 90 mins by microfluidic peptide phosphorylation assay
Vascular endothelial growth factor receptor 2 (Homo sapiens), sequence (P35968 whole entry, the tested form may be a part): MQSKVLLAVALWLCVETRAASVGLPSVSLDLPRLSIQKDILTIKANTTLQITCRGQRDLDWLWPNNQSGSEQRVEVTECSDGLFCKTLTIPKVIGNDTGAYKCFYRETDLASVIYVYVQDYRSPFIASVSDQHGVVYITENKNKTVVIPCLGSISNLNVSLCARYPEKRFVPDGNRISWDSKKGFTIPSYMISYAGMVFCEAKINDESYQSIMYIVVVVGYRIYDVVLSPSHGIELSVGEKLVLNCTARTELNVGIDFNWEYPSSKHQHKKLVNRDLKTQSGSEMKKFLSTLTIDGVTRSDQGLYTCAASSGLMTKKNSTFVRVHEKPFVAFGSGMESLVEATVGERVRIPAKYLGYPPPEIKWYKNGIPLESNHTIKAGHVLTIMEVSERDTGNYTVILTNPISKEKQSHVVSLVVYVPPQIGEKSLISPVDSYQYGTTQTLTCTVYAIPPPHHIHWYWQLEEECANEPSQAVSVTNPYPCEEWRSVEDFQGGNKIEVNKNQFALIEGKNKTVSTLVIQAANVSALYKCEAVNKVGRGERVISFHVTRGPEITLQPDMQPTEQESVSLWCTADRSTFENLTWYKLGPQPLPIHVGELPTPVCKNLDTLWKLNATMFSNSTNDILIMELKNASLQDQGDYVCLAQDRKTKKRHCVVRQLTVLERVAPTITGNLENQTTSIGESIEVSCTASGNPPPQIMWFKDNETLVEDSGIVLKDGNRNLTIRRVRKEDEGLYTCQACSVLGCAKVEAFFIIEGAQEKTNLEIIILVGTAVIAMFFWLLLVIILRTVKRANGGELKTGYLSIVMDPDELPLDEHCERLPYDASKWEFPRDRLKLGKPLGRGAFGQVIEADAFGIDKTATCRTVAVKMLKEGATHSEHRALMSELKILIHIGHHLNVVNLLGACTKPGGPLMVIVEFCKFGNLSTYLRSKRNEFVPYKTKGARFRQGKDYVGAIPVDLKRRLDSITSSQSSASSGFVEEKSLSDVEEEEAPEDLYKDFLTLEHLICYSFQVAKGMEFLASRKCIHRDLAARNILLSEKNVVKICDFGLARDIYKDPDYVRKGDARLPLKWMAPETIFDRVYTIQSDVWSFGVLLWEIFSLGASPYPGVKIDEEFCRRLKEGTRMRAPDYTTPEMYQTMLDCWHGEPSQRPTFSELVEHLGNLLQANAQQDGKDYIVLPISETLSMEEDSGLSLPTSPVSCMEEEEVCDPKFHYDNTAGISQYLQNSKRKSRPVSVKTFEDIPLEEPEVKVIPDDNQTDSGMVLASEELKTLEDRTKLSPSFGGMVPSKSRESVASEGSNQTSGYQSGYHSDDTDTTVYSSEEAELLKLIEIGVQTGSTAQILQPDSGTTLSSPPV

[11] = target: Ribosomal protein S6 kinase alpha-2 (Homo sapiens) (UniProt Q15349); assay: Inhibition of human full length RSK3 expressed in baculovirus assessed as substrate phosphorylation using fluorescence-labelled peptides as substrate at 70 uM after 90 mins by microfluidic peptide phosphorylation assay
[12] = target: Serine/threonine-protein kinase pim-1 (Homo sapiens) (UniProt P11309); assay: Inhibition of human full length PIM1 expressed in baculovirus assessed as substrate phosphorylation using fluorescence-labelled peptides as substrate at 70 uM after 90 mins by microfluidic peptide phosphorylation assay
[13] = target: Tyrosine-protein kinase Fer (Homo sapiens) (UniProt P16591); assay: Inhibition of human FER catalytic domain expressed in baculovirus assessed as substrate phosphorylation using fluorescence-labelled peptides as substrate at 420 uM after 90 mins by microfluidic peptide phosphorylation assay
Tyrosine-protein kinase Fer (Homo sapiens), sequence (P16591 whole entry, looked up, the tested form may be a part): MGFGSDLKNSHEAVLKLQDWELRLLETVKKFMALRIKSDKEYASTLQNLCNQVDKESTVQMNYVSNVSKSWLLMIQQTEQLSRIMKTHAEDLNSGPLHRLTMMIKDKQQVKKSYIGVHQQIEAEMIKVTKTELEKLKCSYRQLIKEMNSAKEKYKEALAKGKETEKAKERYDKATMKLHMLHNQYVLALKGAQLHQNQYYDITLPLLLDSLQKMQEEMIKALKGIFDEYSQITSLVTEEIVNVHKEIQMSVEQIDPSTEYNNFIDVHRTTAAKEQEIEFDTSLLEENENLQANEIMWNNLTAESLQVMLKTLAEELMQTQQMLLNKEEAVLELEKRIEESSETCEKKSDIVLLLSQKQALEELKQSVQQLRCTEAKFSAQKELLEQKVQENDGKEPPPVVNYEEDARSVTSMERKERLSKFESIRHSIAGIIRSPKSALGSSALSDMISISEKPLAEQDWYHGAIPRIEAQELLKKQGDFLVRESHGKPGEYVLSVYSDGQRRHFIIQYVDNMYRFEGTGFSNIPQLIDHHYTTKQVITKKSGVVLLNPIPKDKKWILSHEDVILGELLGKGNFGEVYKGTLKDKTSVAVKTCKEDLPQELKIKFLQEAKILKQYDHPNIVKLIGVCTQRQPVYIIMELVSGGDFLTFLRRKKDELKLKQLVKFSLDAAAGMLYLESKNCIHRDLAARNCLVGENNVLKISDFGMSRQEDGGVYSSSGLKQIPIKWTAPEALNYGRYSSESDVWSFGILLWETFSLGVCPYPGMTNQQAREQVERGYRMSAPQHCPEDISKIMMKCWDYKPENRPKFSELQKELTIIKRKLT

Fibroblast growth factor receptor 1 (Homo sapiens), sequence (P11362 22-822 limits assumed): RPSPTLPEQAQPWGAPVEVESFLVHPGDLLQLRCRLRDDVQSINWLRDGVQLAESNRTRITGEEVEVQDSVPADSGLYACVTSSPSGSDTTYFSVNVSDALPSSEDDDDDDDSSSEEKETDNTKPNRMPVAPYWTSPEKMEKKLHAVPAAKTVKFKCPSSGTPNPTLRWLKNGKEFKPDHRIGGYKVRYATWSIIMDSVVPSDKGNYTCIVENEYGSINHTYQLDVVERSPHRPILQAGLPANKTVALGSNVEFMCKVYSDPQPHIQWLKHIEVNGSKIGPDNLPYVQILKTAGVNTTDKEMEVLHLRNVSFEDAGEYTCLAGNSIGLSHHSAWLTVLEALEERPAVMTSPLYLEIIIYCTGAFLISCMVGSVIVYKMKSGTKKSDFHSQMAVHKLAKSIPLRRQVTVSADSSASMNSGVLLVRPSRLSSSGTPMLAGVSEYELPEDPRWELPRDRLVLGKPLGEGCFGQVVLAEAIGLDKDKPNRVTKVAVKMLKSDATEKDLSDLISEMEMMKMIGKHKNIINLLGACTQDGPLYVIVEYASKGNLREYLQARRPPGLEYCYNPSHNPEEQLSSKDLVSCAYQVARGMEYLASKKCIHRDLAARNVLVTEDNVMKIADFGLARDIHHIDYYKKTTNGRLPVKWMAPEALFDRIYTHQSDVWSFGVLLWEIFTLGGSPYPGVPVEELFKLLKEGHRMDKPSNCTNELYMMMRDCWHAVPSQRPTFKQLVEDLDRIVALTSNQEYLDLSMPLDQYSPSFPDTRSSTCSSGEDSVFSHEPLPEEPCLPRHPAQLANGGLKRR

Question: Which results are given for `NCC1CCN(c2ncnc3[nH]ccc23)CC1`?
Answer: inhibition [1]: 36.5%; inhibition [2]: 0%

Question: With `NC1(Cc2ccc(Cl)cc2)CCN(c2ncnc3[nH]ccc23)CC1` as the molecule, how does the inhibition [3] read?
Answer: 0%

Question: With `Clc1ccc(C2(c3ccc(-c4ncnc5[nH]cnc45)cc3)CCNCC2)cc1` as the molecule, how does the inhibition [4] read?
Answer: 87.5%

Question: `COC(=O)c1cnc(Nc2cnc(C#N)cn2)cc1NCC1CCNCC1` was tested. Which inhibition [5] did it give?
Answer: 2%

Question: With `NCC1CN(c2ncnc3[nH]c4cnccc4c23)CCO1` (centres undefined) as the molecule, how does the inhibition [6] read?
Answer: 14.5%

Question: What about the inhibition [7] of the same molecule?
Answer: 94%

Question: For `C[C@H](CN(C)C)Oc1nc(Nc2cc3cccc(Cl)c3cn2)cnc1C#N`, which inhibition [8] is on record?
Answer: 2.5%

Question: And the inhibition (Homo sapiens)?
Answer: 0%

Question: For `NCCc1ccc(-c2ncnc3[nH]cnc23)cc1`, which inhibition [9] is on record?
Answer: 41.5%

Question: And the inhibition [10]?
Answer: 72.5%

Question: Which results are given for `CNCc1ccc(-c2ncnc3[nH]cnc23)cc1`?
Answer: inhibition [11]: 81%; inhibition [12]: 26%

Question: How did the inhibition [13] turn out when `c1nc(N2CCOCC2)c2nc[nH]c2n1` was run?
Answer: 70.5%
